Earlier results, collected in US11224220B2, “Surfactant composition based on glycine betaine amide salts, process for preparing same and uses thereof” (SURFACTGREEN, priority 2018, dated 2022).

Settings: prior art values (U.S. Pat. No. 7,829,521; Green Chem., 2008, 10, 310-320; WO 2013/188508 Table 5)

| surface tension [mN/m] | SMILES |
| --- | --- |
| 50 | CCCCCCCCCCCCNC(=O)C[N+](C)(C)C [glycine betaine laurylamide] |
| 38 | CCCCCCCCCCCCNC(=O)C[N+](C)(C)C [pure glycine betaine amide] |
